Experimental data reported in ChEMBL document CHEMBL2177093, “The design and identification of brain penetrant inhibitors of phosphoinositide 3-kinase α” (J Med Chem, 2012).
pEC50, pIC50, pKi: −log10 of the molar value. One block for each molecule: values may come before it. Activity calls are given as the source filed them. The calls are words filed in the database; no cut-off is given here.

Columns and labels:
[1] = target: Serine/threonine-protein kinase mTOR (Homo sapiens, UniProt P42345); experiment: Inhibition of human recombinant mTOR (1360 to 2549 amino acids) assessed as reduction in phosphorylation of (GFP)-4-EBP1 after 30 mins by FRET assay; details: read-out: Ki(app)
[2] = Clearance in po dosed CD-1 mouse; format: ADME, organism-based; details: in vivo
[3] = Half life in po dosed CD-1 mouse; format: ADME, organism-based; details: in vivo
[4] = Oral bioavailability in CD-1 mouse; format: ADME, organism-based; details: in vivo
[5] = Plasma protein binding in CD-1 mouse; format: ADME, cell-free; details: read-out: PPB (converted)
[6] = Ratio of drug level in brain to plasma in CD-1 mouse at 25 mg/kg, po at 1 hr; format: ADME, organism-based; parameters: dose 25 mg/kg, route oral; details: read-out: BPR
[7] = Ratio of drug level in brain to plasma in CD-1 mouse at 25 mg/kg, po at 6 hrs; format: ADME, organism-based; parameters: dose 25 mg/kg, route oral; details: read-out: BPR
mouse Bcrp1 = experiment: in vitro; details: dog
[8] = target: Phosphatidylinositol 4,5-bisphosphate 3-kinase catalytic subunit alpha isoform (Homo sapiens, UniProt P42336); experiment: Inhibition of PI3Kalpha assessed as reduction in PIP3 formation after 30 mins by fluorescence polarization assay
PC-3 = experiment: Antiproliferative activity against human PC3 cells incubated for 3 days; format: functional, cell-based; details: PC-3, 72 h
in vitro = details: human, liver microsomes
U-87MG ATCC = experiment: Antitumor activity against PTEN deficient human U87MG cells xenografted in NCr nude mouse assessed as inhibition of tumor growth at 3 to 14 mg/kg, po qd for 24 days; format: functional, organism-based
[9] = Drug level in CD-1 mouse brain at 25 mg/kg, po administered as single dose measured after 6 hrs post dose; format: ADME, organism-based; parameters: dose 25 mg/kg, route oral; details: read-out: Drug uptake
[10] = Drug level in CD-1 mouse brain at 25 mg/kg, po administered as single dose measured after 1 hr post dose; format: ADME, organism-based; parameters: dose 25 mg/kg, route oral; details: read-out: Drug uptake
[11] = Cytotoxicity against human A172 cells incubated for 4 days; format: functional, cell-based; details: A 172, 96 h
[12] = Cytotoxicity against human Hs683 cells incubated for 4 days; format: functional, cell-based; details: Hs 683, 96 h
[13] = Cytotoxicity against human LN229 cells incubated for 4 days; format: functional, cell-based; details: LN-229, 96 h
M059J = experiment: Cytotoxicity against human M059J cells incubated for 4 days; format: functional, cell-based; details: 96 h
SF-539 = experiment: Cytotoxicity against human SF539 cells incubated for 4 days; format: functional, cell-based; details: SF-539, 96 h
[14] = Cytotoxicity against human U87MG cells incubated for 4 days; format: functional, cell-based, U-87MG ATCC; details: U-87 MG, 96 h
SF-268 = experiment: Cytotoxicity against human SF268 cells incubated for 4 days; format: functional, cell-based; details: SF-268, 96 h
Mus musculus [15] = experiment: Inhibition of PI3K signaling in CD-1 mouse assessed as reduction in pAKT level at 25 mg/kg, po administered as single dose measured after 1 hr post dose by immunoblotting method; format: functional; details: CD-1, 1 h
[16] = Toxicity in PTEN deficient human U87MG cells xenografted in NCr nude mouse at dosed orally once daily for 24 days; format: organism-based, U-87MG ATCC; details: in vivo, po
Mus musculus [17] = experiment: Toxicity in PTEN deficient human U87MG cells xenografted in NCr nude mouse assessed as loss in body weight at 6 mg/kg, po qd for 24 days; format: organism-based, U-87MG ATCC; parameters: dose 6 mg/kg, route oral; details: in vivo, 576 h
Mus musculus [18] = experiment: Toxicity in PTEN deficient human U87MG cells xenografted in NCr nude mouse assessed as loss in body weight at 14 mg/kg, po qd for 24 days; format: organism-based, U-87MG ATCC; parameters: dose 14 mg/kg, route oral; details: in vivo, 576 h
Mus musculus [19] = experiment: Toxicity in PTEN deficient human U87MG cells xenografted in NCr nude mouse assessed as loss in body weight at 18 mg/kg, po qd for 24 days; format: organism-based, U-87MG ATCC; parameters: dose 18 mg/kg, route oral; details: in vivo, 576 h
Mus musculus [20] = species: Mus musculus; details: NCr, U-87MG ATCC, 10 mg/kg
Mus musculus [21] = species: Mus musculus; details: NCr, U-87MG ATCC, 40 mg/kg
Mus musculus [22] = species: Mus musculus; details: NCr, U-87MG ATCC, 3 mg/kg
Mus musculus [23] = species: Mus musculus; details: NCr, U-87MG ATCC, 10 mg/kg; remark: listed apart in the source
Mus musculus [24] = species: Mus musculus; details: NCr, U-87MG ATCC, 40 mg/kg; remark: listed apart in the source
Mus musculus [25] = species: Mus musculus; details: NCr, U-87MG ATCC, 3 mg/kg; remark: listed apart in the source
[26] = Ratio of drug level in brain to plasma in CD-1 mouse at 20 mg/kg, po measured at 1 hr; format: ADME, organism-based; parameters: dose 20 mg/kg, route oral; details: read-out: BPR
[27] = Clearance in rat; format: ADME, organism-based; details: in vivo

Phosphatidylinositol 4,5-bisphosphate 3-kinase catalytic subunit alpha isoform, sequence (P42336 whole entry, canonical isoform): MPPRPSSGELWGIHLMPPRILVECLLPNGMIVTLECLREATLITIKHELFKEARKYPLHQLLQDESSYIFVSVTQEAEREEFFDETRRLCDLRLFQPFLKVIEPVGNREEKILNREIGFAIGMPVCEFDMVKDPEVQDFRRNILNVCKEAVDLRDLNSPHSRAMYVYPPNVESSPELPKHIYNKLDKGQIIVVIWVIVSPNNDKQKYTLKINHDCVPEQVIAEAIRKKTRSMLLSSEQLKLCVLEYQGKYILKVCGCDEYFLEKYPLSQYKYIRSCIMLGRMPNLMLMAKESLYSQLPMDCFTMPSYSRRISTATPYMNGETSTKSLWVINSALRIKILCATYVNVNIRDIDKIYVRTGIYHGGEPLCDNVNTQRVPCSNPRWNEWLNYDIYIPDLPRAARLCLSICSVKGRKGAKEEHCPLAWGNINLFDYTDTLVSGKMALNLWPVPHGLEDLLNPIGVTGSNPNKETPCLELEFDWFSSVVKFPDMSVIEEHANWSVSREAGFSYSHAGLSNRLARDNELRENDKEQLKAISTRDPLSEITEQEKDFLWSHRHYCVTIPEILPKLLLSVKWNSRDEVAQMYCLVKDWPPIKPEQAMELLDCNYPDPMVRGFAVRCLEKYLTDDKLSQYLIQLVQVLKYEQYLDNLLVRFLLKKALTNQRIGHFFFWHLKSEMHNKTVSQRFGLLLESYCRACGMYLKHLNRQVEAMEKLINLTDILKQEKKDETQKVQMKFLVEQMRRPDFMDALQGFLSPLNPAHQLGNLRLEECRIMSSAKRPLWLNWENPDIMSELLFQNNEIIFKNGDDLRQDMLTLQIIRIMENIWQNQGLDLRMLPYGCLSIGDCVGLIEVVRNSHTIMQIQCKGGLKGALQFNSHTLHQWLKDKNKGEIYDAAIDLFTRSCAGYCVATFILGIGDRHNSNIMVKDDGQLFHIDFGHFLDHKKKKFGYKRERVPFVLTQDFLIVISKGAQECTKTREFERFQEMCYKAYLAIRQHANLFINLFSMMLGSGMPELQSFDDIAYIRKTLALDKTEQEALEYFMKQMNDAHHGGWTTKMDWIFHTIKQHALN

SMILES: CC(F)(F)c1cc2nc(-c3cnc(N)nc3)nc(N3CCOCC3)c2s1
efflux ratio at 2 h, 5 µM (mouse Bcrp1): 1.7

SMILES: c1cc(-c2nc(N3CCOCC3)c3sccc3n2)c2cn[nH]c2c1
pIC50 [8]: 7.44
pEC50 (PC-3): 5.44
CLhep predicted (in vitro): 16 mL/min/kg
efflux ratio at 2 h, 5 µM (mouse Bcrp1): 1

SMILES: COC(C)(C)c1cc2nc(-c3cnc(N)nc3)nc(N3CCOCC3)c2s1
TGI (U-87MG ATCC): Dose-dependent effect
concentration at 6 h [9]: 350 nM
concentration at 1 h [10]: 2140 nM
CL/F [2]: 20 mL/min/kg
half-life [3]: 20 h
bioavailability [4]: 25%
fraction unbound [5]: 0.102
Kp at 1 h [6]: 1
Kp at 6 h [7]: 0.9
pEC50 [11]: 6.42
pEC50 [12]: 6.57
pEC50 [13]: 6.40
pEC50 (M059J): 6.23
pEC50 (SF-539): 6.47
pEC50 [14]: 6.54
pEC50 (SF-268): 6.00
inhibition in vivo at 25 mg/kg (Mus musculus [15]): 39%
MTD at 576 h [16]: 14 mg/kg
Activity (Mus musculus [17]): Non-toxic
Activity (Mus musculus [18]): < 15%
Activity (Mus musculus [19]): Toxic
inhibition (Mus musculus [20]): Active
inhibition (Mus musculus [21]): Active
inhibition (Mus musculus [22]): Active
inhibition (Mus musculus [23]): Active
inhibition (Mus musculus [24]): Active
inhibition (Mus musculus [25]): Active

SMILES: Cc1c(CN2CCN(C(=O)[C@H](C)O)CC2)sc2c(N3CCOCC3)nc(-c3cnc(N)nc3)nc12 [APITOLISIB]
Kp at 1 h [26]: < 0.1
clearance [27]: 3 mL/min/kg
CLhep predicted (in vitro): 3 mL/min/kg

SMILES: Nc1ncc(-c2nc(N3CCOCC3)c3sc(C4CNC4)cc3n2)cn1
efflux ratio at 2 h, 5 µM (mouse Bcrp1): 22

Next, values leading:

pKi [1]: 7.68
CL/F [2]: 52 mL/min/kg
half-life [3]: 3.3 h
bioavailability [4]: 46%
fraction unbound [5]: 0.087
Kp at 1 h [6]: 0.9
Kp at 6 h [7]: 1.2
efflux ratio at 2 h, 5 µM (mouse Bcrp1): 1.2
SMILES: CC1(C)COC1c1cc2nc(-c3cnc(N)nc3)nc(N3CCOCC3)c2s1 (stereo not given)

efflux ratio at 2 h, 5 µM (mouse Bcrp1): 7.1
SMILES: Cc1c(C2(O)COC2)sc2c(N3CCOCC3)nc(-c3cnc(N)nc3)nc12
